Reference: patent US20200123495A1, “COMPOSITION AND METHOD FOR CONTROLLING INSECTS AND MICR[…] PSEUDOMONAS […]” (Academia Sinica, priority 2014, published 2020)

How the values were obtained:
[1] = test system: Xanthomonas oryzae pv. oryzae (Xoo)
[2] = CAS plate assay (removal of iron from the CAS dye); settings: 1.2 and 1.5 mg pyoverdine on CAS agar plates
Experimental: Chrome azurol S (CAS) is a universal method that detects the mobilization of iron, which assays siderphores production. To prepare 100 ml CAS dye, 60.5 mg CAS powder (Sigma) was dissolved in 50 ml distilled water and mixed with 10 ml of 1 mM iron solution (anhydration FeCl3, Alfa Aesar). Then, 40 ml of 72.9 mg HDTMA (Sigma) was added slowly to 60 ml CAS solution with FeCl3 and autoclaved to sterilize. After CAS cool down can be hand held, one-tenth of CAS solution mixed with LP agar medium and immediately poured into plates.
Different concentration of purified pyoverdine was injected into the hole (5 mm) of CAS plates. Plates were incubated at 28° C. for 6 h or until yellow halo appearance.

Drosophila melanogaster = settings: previous study, Liu et al. 2010; cited from earlier work

Molecule	IC50 toward Xoo (inhibition of cell growth) [1]	LD50 against Xoo (lethal dose) [1]	CAS reaction rate [2]	mortality in Drosophila larvae (Drosophila melanogaster)
C[C@@H](O)[C@@H](NC(=O)[C@@H](NC(=O)[C@H](CCCCN)NC(=O)[C@@H](CO)NC(=O)C1CCN=C2C(NC(=O)CCC(=O)O)=Cc3cc(O)c(O)cc3N21)C(O)c1c[nH]cn1)C(=O)N[C@@H](CO)C(=O)N[C@H]1CCCN(O)C1=O (stereo partly drawn) [pyoverdine, Q-DSer-Lys-OHHis-aDThr-Ser-cOHOrn]	about 2.035 mg/ml	about 1.98 mg/ml	rapidly detected	
recombinant TccC: TccC gene from P. taiwanensis overexpressed in E. coli (SEQ ID NO:2)				increase the mortality
